In ChEMBL document CHEMBL1201862, “PubChem BioAssay data set” (2004):
Activity calls are given as the source filed them.

Key:
[1] = Late stage assay provider results from the probe development effort to identify selective inhibitors of heat shock protein 90 (HSP90): Absorbance-based cell proliferation assay in MCF7 cells.; type: functional
[2] = Late stage assay provider results from the probe development effort to identify selective inhibitors of heat shock protein 90 (HSP90): Absorbance-based cell proliferation assay in SKBR3 cells.; type: functional; conditions: SK-BR-3
[3] = MITF Orthogonal Assay: SK-MEL-5 CTG Assay Measured in Cell-Based System Using Plate Reader - 2084-02_Inhibitor_Dose_DryPowder_Activity_Set7.; type: functional
[4] = inhibitors of TRPM1-promoter reporter in SK-MEL-5 – cell-based, luciferase, dry powder, set 8, MITF inhibitor project, dose response (AID 624430); type: functional
[5] = MITF: Counter assay: A375 proliferation Measured in Cell-Based System Using Plate Reader - 2084-03_Inhibitor_Dose_DryPowder_Activity_Set8.; type: functional; conditions: A-375
INS1 = test: INS-1E survival protection against cytokine death – cell-based, luminescence, retest, dose response (AID 449756); type: functional; conditions: Rattus norvegicus;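 further: cell death triggered by IL-1 beta plus TNF-alpha plus IFN-gamma mixture; protective hits raise ATP signal compared with cytokine alone wells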
[6] = biological target: T1, Heat shock factor protein 1 (Mus musculus, UniProt P38532); test: enhancement of HSF1-driven luciferase signal – cell-based, NIH3T3, luminescence, dose retest, confirmation (AID 435004); type: functional;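 further: stress induced by proteasome inhibitor MG132 added 30 min after compound; luciferase reporter driven by HSF1 response element in NIH3T3 cells; actives raise luminescence as potentiators of the MG132 stress response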
T1 sequence (P38532 whole entry): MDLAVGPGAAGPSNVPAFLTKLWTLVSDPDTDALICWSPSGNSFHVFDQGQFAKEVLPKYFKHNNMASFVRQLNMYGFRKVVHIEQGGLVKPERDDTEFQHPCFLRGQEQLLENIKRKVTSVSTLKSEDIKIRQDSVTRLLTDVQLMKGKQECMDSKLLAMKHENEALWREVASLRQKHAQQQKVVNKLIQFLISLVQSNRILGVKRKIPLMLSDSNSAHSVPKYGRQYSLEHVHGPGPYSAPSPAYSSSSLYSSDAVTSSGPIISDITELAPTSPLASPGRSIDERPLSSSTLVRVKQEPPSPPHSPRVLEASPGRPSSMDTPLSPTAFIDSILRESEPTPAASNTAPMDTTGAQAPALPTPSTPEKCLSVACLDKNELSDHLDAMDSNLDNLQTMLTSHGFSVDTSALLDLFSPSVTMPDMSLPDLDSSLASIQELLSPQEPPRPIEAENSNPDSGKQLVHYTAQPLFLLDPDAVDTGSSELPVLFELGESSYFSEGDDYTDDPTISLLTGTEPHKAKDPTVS

[7] = biological target: T2, Apoptotic protease-activating factor 1 (Homo sapiens, UniProt O14727); type: functional
T2 sequence (O14727 whole entry): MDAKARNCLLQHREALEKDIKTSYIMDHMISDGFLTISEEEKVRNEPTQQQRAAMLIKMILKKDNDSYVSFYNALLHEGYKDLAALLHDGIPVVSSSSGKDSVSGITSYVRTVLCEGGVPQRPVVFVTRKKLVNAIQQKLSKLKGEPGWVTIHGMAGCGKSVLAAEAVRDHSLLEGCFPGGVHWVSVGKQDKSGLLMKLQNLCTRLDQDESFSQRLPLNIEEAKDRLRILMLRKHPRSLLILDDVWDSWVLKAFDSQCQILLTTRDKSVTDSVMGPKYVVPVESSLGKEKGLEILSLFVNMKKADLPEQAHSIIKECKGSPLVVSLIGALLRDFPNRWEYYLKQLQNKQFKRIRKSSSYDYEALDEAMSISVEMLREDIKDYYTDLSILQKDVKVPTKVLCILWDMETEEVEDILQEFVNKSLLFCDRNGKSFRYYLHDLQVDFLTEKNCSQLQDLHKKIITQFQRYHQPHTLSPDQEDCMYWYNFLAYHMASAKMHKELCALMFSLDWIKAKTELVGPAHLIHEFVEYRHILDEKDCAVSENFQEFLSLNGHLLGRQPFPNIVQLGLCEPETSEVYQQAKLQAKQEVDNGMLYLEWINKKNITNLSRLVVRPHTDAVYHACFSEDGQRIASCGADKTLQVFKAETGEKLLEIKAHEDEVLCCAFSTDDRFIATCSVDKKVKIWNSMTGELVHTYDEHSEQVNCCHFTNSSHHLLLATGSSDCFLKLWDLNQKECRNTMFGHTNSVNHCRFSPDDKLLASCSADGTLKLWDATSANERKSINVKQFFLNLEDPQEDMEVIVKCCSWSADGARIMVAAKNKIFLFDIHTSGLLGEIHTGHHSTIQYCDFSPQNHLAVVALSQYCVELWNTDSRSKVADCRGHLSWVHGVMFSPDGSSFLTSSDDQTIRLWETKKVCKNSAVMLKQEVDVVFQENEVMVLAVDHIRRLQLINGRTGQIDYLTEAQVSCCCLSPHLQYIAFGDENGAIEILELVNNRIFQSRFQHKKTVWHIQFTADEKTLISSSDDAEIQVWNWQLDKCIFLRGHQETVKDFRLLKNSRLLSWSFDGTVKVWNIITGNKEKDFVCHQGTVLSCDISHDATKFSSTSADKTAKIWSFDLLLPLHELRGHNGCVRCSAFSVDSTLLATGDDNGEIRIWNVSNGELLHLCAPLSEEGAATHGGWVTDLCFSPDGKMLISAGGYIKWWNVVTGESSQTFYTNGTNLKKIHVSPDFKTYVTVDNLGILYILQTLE

[8] = biological target: T3, Replicative DNA helicase DnaB (Mycobacterium tuberculosis, UniProt P9WMR3); test: DnaB intein splicing inhibitors, dose response, biochemical, cell-free fluorescence (AID 449749); type: functional
T3 sequence (P9WMR3 whole entry): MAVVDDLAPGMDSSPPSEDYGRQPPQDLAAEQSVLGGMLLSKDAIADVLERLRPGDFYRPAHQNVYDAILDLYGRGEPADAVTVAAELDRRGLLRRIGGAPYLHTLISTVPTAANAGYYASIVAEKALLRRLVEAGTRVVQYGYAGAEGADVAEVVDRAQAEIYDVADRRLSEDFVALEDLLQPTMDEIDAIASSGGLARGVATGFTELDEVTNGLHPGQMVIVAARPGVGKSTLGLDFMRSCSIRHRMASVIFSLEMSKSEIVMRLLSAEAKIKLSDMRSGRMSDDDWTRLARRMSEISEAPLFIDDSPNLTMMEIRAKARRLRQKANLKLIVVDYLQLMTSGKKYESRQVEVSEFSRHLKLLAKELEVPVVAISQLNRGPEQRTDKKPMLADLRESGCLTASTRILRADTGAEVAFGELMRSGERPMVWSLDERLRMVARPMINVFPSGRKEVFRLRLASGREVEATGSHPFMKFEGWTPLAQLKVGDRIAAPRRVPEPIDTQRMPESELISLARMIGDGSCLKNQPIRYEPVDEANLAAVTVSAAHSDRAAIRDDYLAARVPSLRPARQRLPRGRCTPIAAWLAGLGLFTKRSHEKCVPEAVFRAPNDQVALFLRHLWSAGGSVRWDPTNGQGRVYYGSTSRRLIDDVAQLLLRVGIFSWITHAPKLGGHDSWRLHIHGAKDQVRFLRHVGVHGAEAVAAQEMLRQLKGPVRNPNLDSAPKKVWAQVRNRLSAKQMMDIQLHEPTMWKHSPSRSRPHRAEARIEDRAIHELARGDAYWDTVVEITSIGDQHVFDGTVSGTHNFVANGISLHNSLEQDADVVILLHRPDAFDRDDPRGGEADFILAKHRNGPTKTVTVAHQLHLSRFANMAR

[9] = biological target: Tyrosyl-DNA phosphodiesterase 2 (Homo sapiens, UniProt O95551); test: potency against TDP2 phosphodiesterase activity – biochemical, epi absorbance, IC50, dose response (AID 743297)
Protein RecA = biological target: T4, Protein RecA (Mycobacterium tuberculosis, UniProt P9WHJ3); test: Fluorescence Cell-Free Homogeneous Dose Retest to Identify Inhibitors of RecA-Intein Splicing Activity. [Related pubchem assays (depositor defined):AID2097, AID2223, AID489010, AID492950]; type: functional
T4 sequence (P9WHJ3 whole entry): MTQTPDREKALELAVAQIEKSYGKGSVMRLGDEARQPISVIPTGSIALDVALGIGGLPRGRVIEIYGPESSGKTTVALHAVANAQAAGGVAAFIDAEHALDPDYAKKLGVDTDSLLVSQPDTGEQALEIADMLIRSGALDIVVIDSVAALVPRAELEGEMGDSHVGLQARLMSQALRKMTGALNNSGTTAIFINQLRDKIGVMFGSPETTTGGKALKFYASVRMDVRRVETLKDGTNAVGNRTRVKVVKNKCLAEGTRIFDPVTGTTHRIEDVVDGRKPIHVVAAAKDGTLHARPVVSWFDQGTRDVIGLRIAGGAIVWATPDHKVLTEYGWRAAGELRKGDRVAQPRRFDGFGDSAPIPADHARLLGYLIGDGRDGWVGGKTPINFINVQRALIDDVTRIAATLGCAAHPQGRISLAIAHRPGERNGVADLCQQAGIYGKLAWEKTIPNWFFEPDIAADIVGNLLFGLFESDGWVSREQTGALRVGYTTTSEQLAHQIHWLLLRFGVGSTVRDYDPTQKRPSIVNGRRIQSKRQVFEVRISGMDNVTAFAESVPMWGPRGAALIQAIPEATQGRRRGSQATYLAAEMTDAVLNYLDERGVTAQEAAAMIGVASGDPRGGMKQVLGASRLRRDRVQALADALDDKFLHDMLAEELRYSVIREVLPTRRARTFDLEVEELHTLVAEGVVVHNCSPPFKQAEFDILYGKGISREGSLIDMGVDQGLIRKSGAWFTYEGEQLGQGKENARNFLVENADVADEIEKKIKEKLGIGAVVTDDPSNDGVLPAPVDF

cells [10] = type: functional, cell-based
BJ [11] = test: cells; type: functional, cell-based; conditions: Homo sapiens
[12] = biological target: Heat shock protein HSP 90-alpha (Homo sapiens, UniProt P07900); type: functional, organism-based
[13] = activation of miR-122 Renilla sensor silencing – cell-based, Huh7 psiCHECK-miR122, Renilla luciferase, cherry-picked, dose response (AID 651956); type: functional;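 further: huh7 hepatoma cells stably carrying a psiCHECK-2 miR-122 sensor plasmid; renilla luciferase signal reporting endogenous miR-122 activity after 48 h compound exposure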
Streptococcus = test: GAS UMAA2166 growth inhibition – luminescence, BacTiterGlo, counter-screen for streptokinase expression inhibitor project, dose response (AID 1915); type: functional, organism-based;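 further: potency for reduction of bacterial viability or growth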
BJ [14] = test: growth inhibition of engineered Ras-driven BJ cells – cell-based, alamar blue fluorescence, cherrypicked samples, dose response (AID 2631); type: functional; conditions: Homo sapiens;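 further: confirmatory dose-response assay in RAS-dependent BJ fibroblasts engineered with TERT, LT and ST, with cytotoxicity read by fluorescence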
Beta-galactosidase [15] = biological target: T5, Beta-galactosidase (Escherichia coli, UniProt Q8VNN2); type: functional
[16] = biological target: T6, Kappa-type opioid receptor (Homo sapiens, UniProt P41145); type: functional
cells [17] = type: functional, cell-based; remark: listed apart in the source
[18] = biological target: T6, Kappa-type opioid receptor; type: functional; remark: listed apart in the source
[19] = DRD fibroblast viability loss – cell-based, non-viral oncogenic, luminescence, dose response (AID 1934); type: functional; conditions: Homo sapiens
[20] = biological target: Photoreceptor-specific nuclear receptor (Homo sapiens, UniProt Q9Y5X4); type: functional, cell-based;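 further: CHO-S cells with Gal4-NCOR and VP16-NR2E3 two-hybrid luciferase reporter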
BJ [21] = test: BJ-TERT fibroblast viability loss – cell-based, RAS-independent, luminescence, dose response (AID 1933); type: functional; conditions: Homo sapiens
Beta-galactosidase [22] = biological target: T5, Beta-galactosidase; test: PubChem AID 485352; type: functional
[23] = general mammalian cell viability loss – activator set, cherry-pick, cytotoxicity control for miR-122 modulator project, dose response (AID 720690); type: functional, cell-based;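 further: HEK293T human cells scored for general mammalian cytotoxicity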
Nonstructural protein 1 = Nonstructural protein 1 (Influenza A virus, UniProt Q194T2); type: functional, Influenza A virus (A/California/07/2009(H1N1))
[24] = biological target: T7, Type-1 angiotensin II receptor (Homo sapiens, UniProt P30556); test: antagonism of angiotensin II type 1 receptor – cell-based, uHTS hits, selectivity assay for APJ receptor antagonist project, dose response (AID 463214); type: functional;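 further: antagonist potency against angiotensin II stimulated AT1 response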
T7 sequence (P30556 whole entry): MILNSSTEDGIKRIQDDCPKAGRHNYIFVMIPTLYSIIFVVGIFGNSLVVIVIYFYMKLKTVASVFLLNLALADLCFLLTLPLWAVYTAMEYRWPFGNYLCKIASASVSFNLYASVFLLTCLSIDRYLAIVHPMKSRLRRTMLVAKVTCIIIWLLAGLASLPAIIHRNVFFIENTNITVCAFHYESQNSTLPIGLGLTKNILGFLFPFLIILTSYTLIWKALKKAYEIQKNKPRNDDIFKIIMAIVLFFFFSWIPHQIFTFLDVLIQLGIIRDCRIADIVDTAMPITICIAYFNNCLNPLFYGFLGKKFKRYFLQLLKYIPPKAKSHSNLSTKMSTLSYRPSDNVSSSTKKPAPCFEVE

[25] = general mammalian cell viability loss – inhibitor set, cherry-pick, set 2, cytotoxicity control for miR-122 modulator project, dose response (AID 720697); type: functional, cell-based
[26] = system: Streptococcus sp. 'group A'; test: Streptococcus pyogenes SK(-)GAS viability under kanamycin – luminescence, BacTiterGlo, confirmation, counter-screen for streptokinase expression inhibitor project, dose response (AID 1900); type: functional, organism-based
BJ [27] = test: BJ-TERT-LT-ST fibroblast viability loss – cell-based, RAS-independent, luminescence, dose response (AID 1935); type: functional; conditions: Homo sapiens;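 further: BJ fibroblasts immortalized with TERT plus LT and ST oncogenes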

T5 sequence (Q8VNN2 whole entry): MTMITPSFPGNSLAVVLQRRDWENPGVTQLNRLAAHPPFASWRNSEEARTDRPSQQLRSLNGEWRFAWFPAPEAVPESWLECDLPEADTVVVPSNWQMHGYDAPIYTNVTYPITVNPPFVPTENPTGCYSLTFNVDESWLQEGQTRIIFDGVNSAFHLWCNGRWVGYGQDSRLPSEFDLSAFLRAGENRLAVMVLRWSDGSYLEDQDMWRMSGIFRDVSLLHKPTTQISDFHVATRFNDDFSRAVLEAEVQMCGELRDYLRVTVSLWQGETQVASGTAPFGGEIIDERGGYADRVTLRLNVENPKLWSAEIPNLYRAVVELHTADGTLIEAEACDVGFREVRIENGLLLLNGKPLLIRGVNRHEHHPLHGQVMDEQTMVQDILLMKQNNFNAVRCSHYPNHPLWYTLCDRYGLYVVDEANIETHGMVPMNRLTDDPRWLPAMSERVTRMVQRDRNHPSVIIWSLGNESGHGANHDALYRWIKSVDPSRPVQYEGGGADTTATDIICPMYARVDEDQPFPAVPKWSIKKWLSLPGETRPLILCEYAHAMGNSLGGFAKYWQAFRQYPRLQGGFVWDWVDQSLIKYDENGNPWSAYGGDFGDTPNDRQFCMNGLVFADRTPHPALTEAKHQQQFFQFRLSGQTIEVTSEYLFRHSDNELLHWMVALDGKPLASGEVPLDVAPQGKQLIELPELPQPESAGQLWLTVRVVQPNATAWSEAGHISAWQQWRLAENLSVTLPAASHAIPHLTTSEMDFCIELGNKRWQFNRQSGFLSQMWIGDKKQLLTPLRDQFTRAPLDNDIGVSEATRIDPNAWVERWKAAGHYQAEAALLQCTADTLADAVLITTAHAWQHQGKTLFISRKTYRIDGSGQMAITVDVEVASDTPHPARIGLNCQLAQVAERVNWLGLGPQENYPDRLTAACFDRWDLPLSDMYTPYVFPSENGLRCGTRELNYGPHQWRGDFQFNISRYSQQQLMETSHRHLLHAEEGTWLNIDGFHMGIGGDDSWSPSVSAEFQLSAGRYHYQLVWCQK
T6 sequence (P41145 whole entry): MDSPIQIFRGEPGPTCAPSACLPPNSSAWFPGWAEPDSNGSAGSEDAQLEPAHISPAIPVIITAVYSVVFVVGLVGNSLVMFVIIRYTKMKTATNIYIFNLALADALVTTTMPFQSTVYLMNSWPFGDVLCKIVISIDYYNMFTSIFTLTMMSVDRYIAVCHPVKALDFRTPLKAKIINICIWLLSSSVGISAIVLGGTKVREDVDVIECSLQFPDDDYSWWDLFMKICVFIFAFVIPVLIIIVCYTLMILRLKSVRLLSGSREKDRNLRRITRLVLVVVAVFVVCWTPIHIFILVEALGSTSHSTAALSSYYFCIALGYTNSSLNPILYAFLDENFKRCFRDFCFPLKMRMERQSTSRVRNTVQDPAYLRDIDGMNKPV
Sequence of Nonstructural protein 1 (Q194T2 whole entry): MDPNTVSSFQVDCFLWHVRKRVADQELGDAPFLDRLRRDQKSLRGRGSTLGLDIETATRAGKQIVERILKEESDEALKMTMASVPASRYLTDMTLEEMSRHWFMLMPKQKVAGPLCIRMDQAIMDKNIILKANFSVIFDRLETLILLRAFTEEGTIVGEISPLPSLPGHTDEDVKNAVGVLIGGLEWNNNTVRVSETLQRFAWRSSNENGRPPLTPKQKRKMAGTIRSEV
Sequence of Photoreceptor-specific nuclear receptor (Q9Y5X4 whole entry, the tested form may be a part): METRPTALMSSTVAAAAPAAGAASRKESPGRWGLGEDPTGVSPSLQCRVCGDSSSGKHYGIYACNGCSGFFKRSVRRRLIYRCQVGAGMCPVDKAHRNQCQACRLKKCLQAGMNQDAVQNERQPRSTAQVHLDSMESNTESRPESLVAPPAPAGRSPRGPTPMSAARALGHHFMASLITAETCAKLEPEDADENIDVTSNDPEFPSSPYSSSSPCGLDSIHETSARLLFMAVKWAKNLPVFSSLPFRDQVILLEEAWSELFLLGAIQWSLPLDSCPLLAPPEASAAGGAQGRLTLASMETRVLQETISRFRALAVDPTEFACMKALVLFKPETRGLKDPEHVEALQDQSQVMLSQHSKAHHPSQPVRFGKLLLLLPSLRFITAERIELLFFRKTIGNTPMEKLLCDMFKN
Sequence of Tyrosyl-DNA phosphodiesterase 2 (O95551 whole entry): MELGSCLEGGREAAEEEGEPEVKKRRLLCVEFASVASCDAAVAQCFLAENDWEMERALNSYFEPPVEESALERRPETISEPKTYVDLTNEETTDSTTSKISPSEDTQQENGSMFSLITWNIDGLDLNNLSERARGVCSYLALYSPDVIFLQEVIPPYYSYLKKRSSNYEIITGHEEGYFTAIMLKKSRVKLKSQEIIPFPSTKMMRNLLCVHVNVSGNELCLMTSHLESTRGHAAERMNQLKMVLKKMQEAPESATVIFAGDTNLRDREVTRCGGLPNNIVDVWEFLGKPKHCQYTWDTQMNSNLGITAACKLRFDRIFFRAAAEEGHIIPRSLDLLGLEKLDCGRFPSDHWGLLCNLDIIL

O=C1OC(=O)/C(=C\NCCN2CCOCC2)C=C1Br
inactive: IC50 [1] 67 µM | IC50 [2] 61 µM

COc1ccc(NC2=C(N3CCN(C)CC3)C(=O)c3ccccc3C2=O)cc1
active: AC50 [3] 16.4 µM | AC50 [4] 24.9 µM
inactive: AC50 [5] > 70 µM

CC(=O)Nc1ccc(S(=O)(=O)NC2=C(N3CCN(c4ccc(F)cc4)CC3)C(=O)c3ccccc3C2=O)cc1
inactive: EC50 [6] > 260 µM | IC50 [9] > 128 µM
active: AC50 (INS1) 4.96 µM | IC50 [7] 17.4 µM | AC50 [8] 4.98 µM | EC50 (Protein RecA) 10.4 µM

Cc1cccnc1Nc1nc(-c2ccccn2)cs1
inactive: EC50 (Beta-galactosidase [15]) > 31.5 µM | EC50 (Beta-galactosidase [22]) > 40 µM
> 32 µM: IC50 [16]
active: EC50 (cells [10]) 3.45 µM | EC50 (BJ [11]) 2.18 µM | AC50 [12] 4.65 µM | AC50 [13] 43.8 µM | EC50 (Streptococcus) 6.4 µM | EC50 (BJ [14]) 0.661 µM | AC50 (INS1) 0.29 µM | EC50 (cells [17]) 3.13 µM | IC50 [18] 2.9 µM | IC50 [20] 3.9 µM | EC50 (BJ [21]) 1.46 µM | EC50 [6] 3.33 µM | AC50 [23] 2.3 µM | IC50 (Nonstructural protein 1) 2.83 µM | IC50 [24] 2.24 µM | AC50 [25] 0.503 µM | EC50 [26] 1.1 µM
inconclusive: EC50 [19] 15.3 µM | EC50 (BJ [27]) 6.23 µM
